Measured values as given in PubChem BioAssay (NCI).
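Test compounds were applied to cells in 96-well plates for 48 hours at 5 doses. At the TGI there is no net growth.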

What was measured:
Assay in all cases: NCI tumour cell line growth inhibition, 48 h
[1] = tested on: NCI-H522 lung
[2] = tested on: EKVX NSCLC
[3] = tested on: SN12C renal
[4] = tested on: BT-549 breast
[5] = tested on: RXF 393 renal
[6] = tested on: MOLT-4 leukemia
[7] = tested on: SNB-75 CNS
[8] = tested on: RPMI-8226 leukemia
[9] = tested on: MCF7 breast
[10] = tested on: MALME-3M melanoma
[11] = tested on: SK-MEL-2 melanoma
[12] = tested on: U251 CNS
[13] = tested on: SNB-19 CNS
[14] = tested on: OVCAR-3 ovarian
[15] = tested on: KM12 colon
[16] = tested on: LOX IMVI melanoma
[17] = tested on: OVCAR-4 ovarian
[18] = tested on: T-47D breast
[19] = tested on: NCI-H460 lung
[20] = tested on: UACC-257 melanoma
[21] = tested on: SK-MEL-5 melanoma
[22] = tested on: HCT-15 colon
[23] = tested on: HL-60(TB) leukemia
[24] = tested on: SF-268 CNS
[25] = tested on: IGROV1 ovarian
[26] = tested on: K-562 leukemia
[27] = tested on: HT29 colon
[28] = tested on: A498 renal
[29] = tested on: MDA-N
[30] = tested on: SF-295 CNS
[31] = tested on: OVCAR-8 ovarian
[32] = tested on: MDA-MB-435
[33] = tested on: OVCAR-5 ovarian
[34] = tested on: DU-145 prostate
[35] = tested on: SF-539 CNS
[36] = tested on: HOP-92 NSCLC
[37] = tested on: A549 NSCLC
[38] = tested on: CCRF-CEM leukemia
[39] = tested on: MDA-MB-231 breast
[40] = tested on: HCC-2998 colon
[41] = tested on: NCI/ADR-RES ovarian
[42] = tested on: TK-10 renal
[43] = tested on: PC-3 prostate
[44] = tested on: HOP-62 NSCLC
[45] = tested on: ACHN renal
[46] = tested on: 786-0 renal
[47] = tested on: M14 melanoma
[48] = tested on: HS 578T breast
[49] = tested on: COLO 205 colon
[50] = tested on: HCT-116 colon
[51] = tested on: UACC-62 melanoma
[52] = tested on: NCI-H23 lung
[53] = tested on: SR leukemia
[54] = tested on: SW-620 colon
[55] = tested on: CAKI-1 renal
[56] = tested on: NCI-H226 lung
[57] = tested on: SK-OV-3 ovarian
[58] = tested on: SK-MEL-28 melanoma

## C=C1C(=O)OC2C1C(OC(=O)/C(C)=C/C)CC(O)(CCl)C1C(O)C3OC3(C)C21O (stereo unspecified)
[1]
  TGI: 10.2 µM
[2]
  TGI: > 50 µM
[3]
  TGI: > 50 µM
[4]
  TGI: > 50 µM
[5]
  TGI: 26 µM
[6]
  TGI: > 50 µM
[7]
  TGI: > 50 µM
[8]
  TGI: > 50 µM
[9]
  TGI: > 50 µM
[10]
  TGI: 10.6 µM
[11]
  TGI: > 50 µM
[12]
  TGI: > 50 µM
[13]
  TGI: > 50 µM
[14]
  TGI: > 50 µM
[15]
  TGI: > 50 µM
[16]
  TGI: > 50 µM
[17]
  TGI: > 50 µM
[18]
  TGI: > 50 µM
[19]
  TGI: > 50 µM
[20]
  TGI: > 50 µM
[21]
  TGI: > 50 µM
[22]
  TGI: > 50 µM
[23]
  TGI: 23.2 µM
[24]
  TGI: > 50 µM
[25]
  TGI: > 50 µM
[26]
  TGI: > 50 µM
[27]
  TGI: > 50 µM
[28]
  TGI: > 50 µM
[29]
  TGI: > 50 µM
[30]
  TGI: > 50 µM
[31]
  TGI: 42.5 µM
[32]
  TGI: > 50 µM
[33]
  TGI: > 50 µM
[34]
  TGI: > 50 µM
[35]
  TGI: > 50 µM
[36]
  TGI: > 50 µM
[37]
  TGI: > 50 µM
[38]
  TGI: > 50 µM
[39]
  TGI: > 50 µM
[40]
  TGI: > 50 µM
[41]
  TGI: > 50 µM
[42]
  TGI: > 50 µM
[43]
  TGI: > 50 µM
[44]
  TGI: > 50 µM
[45]
  TGI: > 50 µM
[46]
  TGI: 39 µM
[47]
  TGI: > 50 µM
[48]
  TGI: > 50 µM
[49]
  TGI: 41.9 µM
[50]
  TGI: 23.7 µM
[51]
  TGI: > 50 µM
[52]
  TGI: > 50 µM
[53]
  TGI: > 50 µM
[54]
  TGI: 34.1 µM
[55]
  TGI: > 50 µM
[56]
  TGI: > 50 µM
[57]
  TGI: > 50 µM
[58]
  TGI: > 50 µM

## C=C1C(=O)OC2/C=C(/C)C(OC(C)=O)CC(O)/C(C)=C\C(OC(=O)/C(C)=C\C)C12 (stereo unspecified)
[1]
  TGI: 22.7 µM
[2]
  TGI: > 100 µM
[3]
  TGI: > 100 µM
[4]
  TGI: > 100 µM
[5]
  TGI: > 100 µM
[6]
  TGI: > 100 µM
[7]
  TGI: > 100 µM
[8]
  TGI: > 100 µM
[9]
  TGI: > 100 µM
[10]
  TGI: 30.9 µM
[11]
  TGI: > 100 µM
[12]
  TGI: > 100 µM
[13]
  TGI: > 100 µM
[14]
  TGI: > 100 µM
[15]
  TGI: > 100 µM
[16]
  TGI: > 100 µM
[17]
  TGI: > 100 µM
[18]
  TGI: > 100 µM
[19]
  TGI: > 100 µM
[20]
  TGI: > 100 µM
[21]
  TGI: > 100 µM
[22]
  TGI: > 100 µM
[23]
  TGI: 60.7 µM
[24]
  TGI: > 100 µM
[25]
  TGI: > 100 µM
[26]
  TGI: > 100 µM
[27]
  TGI: > 100 µM
[28]
  TGI: > 100 µM
[29]
  TGI: > 100 µM
[30]
  TGI: > 100 µM
[31]
  TGI: > 100 µM
[32]
  TGI: > 100 µM
[33]
  TGI: > 100 µM
[34]
  TGI: > 100 µM
[35]
  TGI: > 100 µM
[36]
  TGI: > 100 µM
[37]
  TGI: > 100 µM
[38]
  TGI: > 100 µM
[39]
  TGI: > 100 µM
[40]
  TGI: > 100 µM
[41]
  TGI: > 100 µM
[42]
  TGI: > 100 µM
[43]
  TGI: > 100 µM
[44]
  TGI: > 100 µM
[45]
  TGI: > 100 µM
[46]
  TGI: 35.4 µM
[47]
  TGI: > 100 µM
[48]
  TGI: > 100 µM
[49]
  TGI: > 100 µM
[50]
  TGI: 35.6 µM
[51]
  TGI: > 100 µM
[52]
  TGI: > 100 µM
[53]
  TGI: > 100 µM
[54]
  TGI: 67.6 µM
[55]
  TGI: 86.4 µM
[56]
  TGI: > 100 µM
[57]
  TGI: > 100 µM
[58]
  TGI: > 100 µM
